# In patent US8324199B2, “Pyridazine derivatives as factor xia inhibitors” (Bristol-Myers Squibb Company, priority 2008, dated 2012):
# Biological target: T1, purified human Factor XIa (Homo sapiens, UniProt P03951)
# T1 construct: purchased Haematologic Technologies
# Experiment: Factor XIa assay (chromogenic substrate hydrolysis, Ki)
# Type: biochemical
# Conditions: purified human Factor XIa 75-200 pM, substrate S-2366, 50 mM HEPES pH 7.4
# Experimental: The effectiveness of compounds of the present invention as inhibitors of the coagulation factors XIa, VIIa, IXa, Xa, XIIa, plasma kallikrein or thrombin, can be determined using a relevant purified serine protease, respectively, and an appropriate synthetic substrate. The rate of hydrolysis of the chromogenic or fluorogenic substrate by the relevant serine protease was measured both in the absence and presence of compounds of the present invention. […] A decrease in the rate of absorbance or fluorescence change in the presence of inhibitor is indicative of enzyme inhibition. Such methods are known to one skilled in the art. The results of this assay are expressed as the inhibitory constant, Ki.
# Factor XIa determinations were made in 50 mM HEPES buffer at pH 7.4 containing 145 mM NaCl, 5 mM KCl, and 0.1% PEG 8000 (polyethylene glycol; JT Baker or Fisher Scientific). Determinations were made using purified human Factor XIa at a final concentration of 75-200 pM (Haematologic Technologies) and the synthetic substrate S-2366 (pyroGlu-Pro-Arg-pNA; Chromogenix or AnaSpec) at a concentration of 0.0002-0.001 M.
# The Michaelis constant, Km, for substrate hydrolysis by each protease, was determined at 25° C. using the method of Lineweaver and Burk. Values of Ki were determined by allowing the protease to react with the substrate in the presence of the inhibitor. Reactions were allowed to go for periods of 20-180 minutes (depending on the protease) and the velocities (rate of absorbance or fluorescence change versus time) were measured. The following relationships were used to calculate Ki values: (vo−vs)/vs=I/(Ki(1+S/Km)) for a competitive inhibitor with one binding site; or vs/vo=A+((B−A)/1+((IC50/(I)^n))); and Ki=IC50/(1+S/Km) for a competitive inhibitor where: […]
# T1 sequence (P03951 388-625 limits assumed): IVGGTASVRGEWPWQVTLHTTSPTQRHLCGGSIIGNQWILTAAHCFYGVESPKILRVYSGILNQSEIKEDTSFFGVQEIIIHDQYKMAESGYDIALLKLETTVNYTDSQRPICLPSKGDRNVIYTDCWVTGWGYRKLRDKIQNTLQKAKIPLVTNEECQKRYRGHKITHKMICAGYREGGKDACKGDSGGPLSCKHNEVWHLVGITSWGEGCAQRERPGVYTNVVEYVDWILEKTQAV
# T1 sequence (P03951 19-387 partner limits assumed): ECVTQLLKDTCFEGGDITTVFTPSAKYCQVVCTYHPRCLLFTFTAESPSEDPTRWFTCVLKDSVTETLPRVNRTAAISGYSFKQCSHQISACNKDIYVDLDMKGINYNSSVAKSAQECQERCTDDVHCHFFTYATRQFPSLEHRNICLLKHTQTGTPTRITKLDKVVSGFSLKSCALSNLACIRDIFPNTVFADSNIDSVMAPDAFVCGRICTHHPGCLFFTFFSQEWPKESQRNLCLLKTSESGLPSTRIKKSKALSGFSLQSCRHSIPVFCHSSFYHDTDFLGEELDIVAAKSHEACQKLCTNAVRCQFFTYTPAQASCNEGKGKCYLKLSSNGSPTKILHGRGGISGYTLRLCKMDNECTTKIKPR
row,SMILES,Ki [nM]
1,"O=C(O)CCOC(=O)Nc1ccc(-c2cnnc([C@H](Cc3ccccc3)NC(=O)CCc3ccccc3-n3cnnn3)c2)cc1 [Example 60, (S)-3-(4-(6-(1-(3-(2-(1H-Tetrazol-1-yl)phenyl)propanamido)-2-phenylethyl)pyridazin-4-yl)phenylcarbamoyloxy)propanoic acid]",3370
2,"CCn1ccc(C[C@H](NC(=O)/C=C/c2cc(Cl)ccc2-n2cnnn2)c2cc(-c3ccc(NC(=O)OC)cc3)c(Cl)nn2)n1 [Example 71, (S,E)-Methyl 4-(3-chloro-6-(1-(3-(5-chloro-2-(1H-tetrazol-1-yl)phenyl)acrylamido)-2-(1-ethyl-1H-pyrazol-3-yl)ethyl)pyridazin-4-yl)phenylcarbamate]",9.4
3,"NC1CC1C(=O)Nc1ccc(-c2cnnc([C@H](Cc3ccccc3)NC(=O)/C=C/c3cc(Cl)ccc3-n3cnnn3)c2)cc1 (stereo partly drawn) [Example 80, 2-Amino-N-(4-(6-((S)-1-((E)-3-(5-chloro-2-(1H-tetrazol-1-yl)phenyl)acrylamido)-2-phenylethyl)pyridazin-4-yl)phenyl)cyclopropanecarboxamide]",3330
4,"COC(=O)Nc1ccc(-c2cc([C@H](CCSC)NC(=O)/C=C/c3cc(Cl)ccc3-n3cnnn3)nnc2Cl)cc1 [Example 90, (S,E)-Methyl 4-(3-chloro-6-(1-(3-(5-chloro-2-(1H-tetrazol-1-yl)phenyl)acrylamido)-3-(methylthio)propyl)pyridazin-4-yl)phenylcarbamate]",67
5,"COC(=O)Nc1ccc(-c2cc([C@H](Cc3cc4n(n3)CCCO4)NC(=O)/C=C/c3cc(Cl)ccc3-n3cnnn3)nnc2Cl)cc1 [Example 97, (S,E)-Methyl 4-(3-chloro-6-(1-(3-(5-chloro-2-(1H-tetrazol-1-yl)phenyl)acrylamido)-2-(6,7-dihydro-5H-pyrazolo[5,1-b][1,3]oxazin-2-yl)ethyl)pyridazin-4-yl)phenylcarbamate]",17
6,"COC(=O)Nc1ccc(-c2cc([C@H](CC3CCCN(C(=O)C4CC4)C3)NC(=O)/C=C/c3cc(Cl)ccc3-n3cnnn3)nnc2Cl)cc1 (stereo partly drawn) [Example 112, Methyl 4-(3-chloro-6-((1S)-1-((E)-3-(5-chloro-2-(1 H-tetrazol-1-yl)phenyl)acrylamido)-2-(1-(cyclopropanecarbonyl)piperidin-3-yl)ethyl)pyridazin-4-yl)phenylcarbamate]",6360
7,"CCN1CCC(C[C@H](NC(=O)/C=C/c2cc(Cl)ccc2-n2cnnn2)c2cc(-c3ccc(NC(=O)OC)cc3)c(Cl)nn2)C1 (stereo partly drawn) [Example 116, Methyl 4-(3-chloro-6-((1S)-1-((E)-3-(5-chloro-2-(1 H-tetrazol-1-yl)phenyl)acrylamido)-2-(1-ethylpyrrolidin-3-yl)ethyl)pyridazin-4-yl)phenylcarbamate]",327
8,"COC(=O)Nc1ccc(-c2cc([C@H](Cc3cscn3)NC(=O)/C=C/c3cc(Cl)ccc3-n3cnnn3)nnc2Cl)cc1 [Example 123, (S,E)-Methyl 4-(3-chloro-6-(1-(3-(5-chloro-2-(1H-tetrazol-1-yl)phenyl)acrylamido)-2-(thiazol-4-yl)ethyl)pyridazin-4-yl)phenylcarbamate]",57
9,"COC(=O)Nc1ccc(-c2cc([C@H](Cc3cc([S+](C)[O-])n(C)n3)NC(=O)/C=C/c3cc(Cl)ccc3-n3cnnn3)n[nH]c2=O)cc1 (stereo partly drawn) [Example 132, (S,E)-Methyl 4-(6-(1-(3-(5-chloro-2-(1H-tetrazol-1-yl)phenyl)acrylamido)-2-(1-methyl-5-(methylsulfinyl)-1H-pyrazol-3-yl)ethyl)-3-oxo-2,3-dihydropyridazin-4-yl)phenylcarbamate]",76
10,"COC(=O)Nc1ccc(-c2cc([C@H](CC3CN(C(=O)OC(C)(C)C)C3)NC(=O)/C=C/c3cc(Cl)ccc3-n3cnnn3)n[nH]c2=O)cc1 [Example 136, (S,E)-tert-Butyl 3-(2-(3-(5-chloro-2-(1H-tetrazol-1-yl)phenyl)acrylamido)-2-(5-(4-(methoxycarbonylamino)phenyl)-6-oxo-1,6-dihydropyridazin-3-yl)ethyl)azetidine-1-carboxylate]",503

# The remaining molecules from weak to strong by Ki, led by results:
row,Ki [nM],SMILES
1,5150,"COC(=O)Nc1ccc(-c2cc([C@H](CC3CCN(C(=O)OCc4ccccc4)C3)NC(=O)/C=C/c3cc(Cl)ccc3-n3cnnn3)n[nH]c2=O)cc1 (stereo partly drawn) [Example 147, Benzyl 3-((S)-2-((E)-3-(5-chloro-2-(1H-tetrazol-1-yl)phenyl)acrylamido)-2-(5-(4-(methoxycarbonylamino)phenyl)-6-oxo-1,6-dihydropyridazin-3-yl)ethyl)pyrrolidine-1-carboxylate]"
2,1680,"COC(=O)Nc1ccc(-c2cc([C@H](Cc3ccccc3)NC(=O)/C=C/c3cc(Cl)ccc3-n3cnnn3)n[nH]c2=O)cc1F [Example 61, (S,E)-Methyl 4-(6-(1-(3-(5-chloro-2-(1H-tetrazol-1-yl)phenyl)acrylamido)-2-phenylethyl)-3-oxo-2,3-dihydropyridazin-4-yl)-2-fluorophenylcarbamate]"
3,176,"COC(=O)Nc1ccc(-c2cc([C@H](CC3CCCN(S(C)(=O)=O)C3)NC(=O)/C=C/c3cc(Cl)ccc3-n3cnnn3)n[nH]c2=O)cc1 (stereo partly drawn) [Example 154, Methyl 4-(6-((1S)-1-((E)-3-(5-chloro-2-(1H-tetrazol-1-yl)phenyl)acrylamido)-2-(1-(methylsulfonyl)piperidin-3-yl)ethyl)-3-oxo-2,3-dihydropyridazin-4-yl)phenylcarbamate]"
4,141,"O=C(/C=C/c1cc(Cl)ccc1-n1cnnn1)N[C@@H](Cc1ccccc1)c1cc(-c2ccc(NC(=O)OC3CNC3)cc2)cnn1 [Example 89, (S,E)-Azetidin-3-yl 4-(6-(1-(3-(5-chloro-2-(1H-tetrazol-1-yl)phenyl)acrylamido)-2-phenylethyl)pyridazin-4-yl)phenylcarbamate]"
5,27,"COC(=O)Nc1ccc(-c2cc([C@H](Cc3ccncc3)NC(=O)/C=C/c3cc(Cl)ccc3-n3cnnn3)nnc2Cl)cc1 [Example 94, (S,E)-Methyl 4-(3-chloro-6-(1-(3-(5-chloro-2-(1H-tetrazol-1-yl)phenyl)acrylamido)-2-(pyridin-4-yl)ethyl)pyridazin-4-yl)phenylcarbamate]"
6,5.5,"COC(=O)Nc1ccc(-c2cc([C@H](CC(=O)OC(C)(C)C)NC(=O)/C=C/c3cc(Cl)ccc3-n3cnnn3)n[nH]c2=O)cc1 [Example 146, (S,E)-tert-Butyl 3-(3-(5-chloro-2-(1H-tetrazol-1-yl)phenyl)acrylamido)-3-(5-(4-(methoxycarbonylamino)phenyl)-6-oxo-1,6-dihydropyridazin-3-yl)propanoate]"
7,0.84,"O=C(/C=C/c1cc(Cl)ccc1-n1cnnn1)N[C@@H](Cc1ccccc1)c1cc(-c2ccc3[nH]c(=O)cc(O)c3c2)cnn1 [Example 78, (S,E)-3-(5-Chloro-2-(1H-tetrazol-1-yl)phenyl)-N-(1-(5-(4-hydroxy-2-oxo-1,2-dihydroquinolin-6-yl)pyridazin-3-yl)-2-phenylethyl)acrylamide]"
